Legend:
[1] = biological target: T1, human BACE1 (Homo sapiens, UniProt P56817); assay: BACE1 binding assay (SPA-based, radioligand displacement); parameters: biotin (biotinylated form); made in house; host or cells: Freestyle HEK293 cells; conditions: pH 4.5, 10 nM radioligand, 6 nM human BACE1, read-out: BACE1 binding affinity
Method: The binding assay was performed as SPA-based assay using a biotinylated form of human BACE1 recombinantly expressed and subsequently purified from Freestyle HEK293 cells. The binding assay was run in a 50 mM sodium acetate buffer, pH 4.5 containing 50 mM NaCl and 0.03% Tween-20 in white clear bottom 384 plates (Corning #3653). 10 nM (final concentration) radioligand ([^3H]-N-((1S,2R)-1-benzyl-3-cyclopropylamino-2-hydroxy-propyl)-5-(methanesulfonyl-methyl-amino)-N-((R)-1-phenyl-ethyl)-isophthalamide) (TRQ11569 purchased from GE Healthcare) was mixed with test compound at a given concentration, 6 nM (final concentration) human BACE1 and 25 μg Streptavidin coated PVT core SPA beads (RPNQ0007, GE Healthcare Life Sciences) in a total volume of 40 μl. Several concentrations of each test compound were tested in the assay for IC50 determination. The plates were incubated for one hour at room temperature and counted in a WaIlac Trilux counter. […] For each test compound, a IC50 value (the concentration mediating 50% inhibition of the specific binding of the radioligand) was determined from concentration-response curve and used to calculate the Ki from the equation Ki=IC50/(1+L/Kd), where L and Kd are the final concentration of the radioligand used in the assay and the dissociation constant of the radioligand, respectively. The Kd of the radioligand was determined from saturation binding experiments.

[2] = biological target: T1, human BACE1; assay: BACE1 efficacy assay (FRET-based, commercial BACE1 kit); format: biochemical; parameters: purchased Life Technologies P2985; conditions: test compound at 10 μM
Method: The efficacy assay was performed as a FRET-based assay using a commercially available BACE1 kit (Life Technologies, P2985). 2 μl test compound at 10 μM (final concentration) and 15 μl BACE1 enzyme from the kit (final concentration 3 nM) were preincubated for 15 minutes at room temperature before addition of 15 μl of substrate from the kit (250 nM final concentration) and incubated for additional 90 minutes at room temperature. The assay plate was subsequently read in a Pherastar (Ex540/Em590).

[3] = system: P-gp (MDR1); assay: MDCK-MDR1 assay (permeability, efflux ratio); format: in vitro ADME; conditions: dog
Method: The permeability of the test compounds was assessed in MDCK-MDR1 cells that were cultured to confluency (4-6 days) in a 96 transwell plate. Test compounds were diluted with the transport buffer (HBSS+1% BSA) to a concentration of 0.5 μM and applied to the apical or basolateral side of the cell monolayer. Permeation of the test compounds from A to B direction or B to A direction was determined in triplicate over a 60-minute incubation time at 37° C. and 5% CO2 with a relative humidity of 95%. Test compounds were quantified by LC-MS/MS analysis based on the peaks area ratios of analyte/IS in both the receiver and donor wells of the transwell plate.
The apparent permeability coefficient Papp (cm/s) was calculated using the equation: Papp=(dCr/dt)×Vr/(A×C0)
Where dCr/dt is the cumulative concentration of compound in the receiver chamber as a function of time (μM/s); Vr is the solution volume in the receiver chamber (0.05 mL on the apical side; 0.25 mL on the basolateral side); A is the surface area for the transport, i.e. 0.0804 cm^2 for the area of the monolayer; C0 is the initial concentration in the donor chamber (μM).

T1 sequence (P56817 46-501): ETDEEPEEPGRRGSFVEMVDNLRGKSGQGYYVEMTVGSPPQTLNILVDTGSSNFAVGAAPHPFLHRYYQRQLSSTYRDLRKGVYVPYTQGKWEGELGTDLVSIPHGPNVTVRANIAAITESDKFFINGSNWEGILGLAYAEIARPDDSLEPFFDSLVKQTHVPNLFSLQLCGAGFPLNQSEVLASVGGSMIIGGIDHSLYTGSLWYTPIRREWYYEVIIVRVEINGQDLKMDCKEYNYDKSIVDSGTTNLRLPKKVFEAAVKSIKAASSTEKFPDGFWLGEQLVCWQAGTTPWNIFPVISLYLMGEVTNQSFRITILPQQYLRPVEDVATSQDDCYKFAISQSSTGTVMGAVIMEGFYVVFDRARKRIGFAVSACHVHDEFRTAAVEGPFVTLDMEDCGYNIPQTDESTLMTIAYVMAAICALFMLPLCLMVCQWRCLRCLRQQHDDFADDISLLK

Structure (SMILES) | Ki [1] | inhibition at 10 µM [2] | efflux ratio at 60 min, 0.5 µM [3]
C[C@@]1(c2cc(NC(=O)c3ccc(F)cn3)cc(F)c2F)CC[C@@](F)(CF)C(N)=N1 [Compound 15, N-[3-[(2S,5S)-6-Amino-5-fluoro-5-(fluoromethyl)-2-methyl-2,3,4,5-tetrahydropyridin-2-yl]-4,5-difluoro-phenyl]-5-fluoro-pyridine-2-carboxamide] | 52 nM | 104% | 1.17
COc1ccc(C(=O)Nc2cc(F)c(F)c([C@]3(C)CC[C@@](F)(CF)C(N)=N3)c2)nc1 [Compound 16, N-[3-[(2S,5S)-6-Amino-5-fluoro-5-(fluoromethyl)-2-methyl-2,3,4,5-tetrahydropyridin-2-yl]-4,5-difluoro-phenyl]-5-methoxy-pyridine-2-carboxamide] | – | 104% | –
C[C@@]1(c2cc(NC(=O)c3ccc(Cl)cn3)ccc2F)CC[C@@](F)(CF)C(N)=N1 [Compound 4, N-(3-((2S,5S)-6-Amino-5-fluoro-5-(fluoromethyl)-2-methyl-2,3,4,5-tetrahydropyridin-2-yl)-4-fluorophenyl)-5-chloropicolinamide] | 11 nM | 102% | 1.34
Cc1cc(C#N)cnc1C(=O)Nc1ccc(F)c([C@]2(C)CC[C@@](F)(CF)C(N)=N2)c1 [Compound 3, N-(3-((2S,5S)-6-Amino-5-fluoro-5-(fluoromethyl)-2-methyl-2,3,4,5-tetrahydropyridin-2-yl)-4-fluorophenyl)-5-cyano-3-methylpicolinamide] | 10 nM | 105% | 4.87
NC1=N[C@](CF)(c2cc(NC(=O)c3ccc(F)cn3)ccc2F)CC[C@]1(F)CF [Compound 24, N-[3-[(2S,5R)-6-amino-5-fluoro-2,5-bis(fluoromethyl)-2,3,4,5-tetrahydropyridin-2-yl]-4-fluoro-phenyl]-5-fluoro-pyridine-2-carboxamide] | 180 nM | – | 0.88
Cc1csc(C(=O)Nc2ccc(F)c([C@]3(C)CC[C@@](F)(CF)C(N)=N3)c2)n1 [Compound 8, N-(3-((2S,5S)-6-Amino-5-fluoro-5-(fluoromethyl)-2-methyl-2,3,4,5-tetrahydropyridin-2-yl)-4-fluorophenyl)-4-methylthiazole-2-carboxamide] | 62 nM | – | 2.36
NC1=N[C@](CF)(c2cc(NC(=O)c3ccc(F)cn3)ccc2F)CC[C@@]1(F)CF [Compound 21, N-[3-[(2S,5S)-6-amino-5-fluoro-2,5-bis(fluoromethyl)-2,3,4,5-tetrahydropyridin-2-yl]-4-fluoro-phenyl]-5-fluoro-pyridine-2-carboxamide] | 67 nM | – | 0.97
Cn1cc(Br)nc1C(=O)Nc1ccc(F)c([C@]2(C)CC[C@@](F)(CF)C(N)=N2)c1 [Compound 7, N-(3-((2S,5S)-6-Amino-5-fluoro-5-(fluoromethyl)-2-methyl-2,3,4,5-tetrahydropyridin-2-yl)-4-fluorophenyl)-4-bromo-1-methyl-1H-imidazole-2-carboxamide] | 67 nM | 104% | –
COc1cnc(C(=O)Nc2cc(F)c(F)c([C@]3(C)CC[C@](F)(CF)C(N)=N3)c2)cn1 [Compound 20, N-[3-[(2S,5R)-6-Amino-5-fluoro-5-(fluoromethyl)-2-methyl-2,3,4,5-tetrahydropyridin-2-yl]-4,5-difluoro-phenyl]-5-methoxy-pyrazine-2-carboxamide] | 230 nM | 102% | 0.77
COc1ccc(C(=O)Nc2cc(F)c(F)c([C@]3(C)CC[C@](F)(CF)C(N)=N3)c2)nc1 [Compound 19, N-[3-[(2S,5R)-6-Amino-5-fluoro-5-(fluoromethyl)-2-methyl-2,3,4,5-tetrahydropyridin-2-yl]-4,5-difluoro-phenyl]-5-methoxy-pyridine-2-carboxamide] | – | 104% | –
C[C@@]1(c2cc(NC(=O)c3ccc(F)cn3)cc(F)c2F)CC[C@](F)(CF)C(N)=N1 [Compound 18, N-[3-[(2S,5R)-6-Amino-5-fluoro-5-(fluoromethyl)-2-methyl-2,3,4,5-tetrahydropyridin-2-yl]-4,5-difluoro-phenyl]-5-fluoro-pyridine-2-carboxamide] | 300 nM | 103% | –
C[C@@]1(c2cc(NC(=O)c3ccn(C(F)F)n3)ccc2F)CC[C@@](F)(CF)C(N)=N1 [Compound 10] | 22 nM | 103% | 10.6
COc1ccc(C(=O)Nc2ccc(F)c([C@]3(C)CC[C@@](F)(CF)C(N)=N3)c2)nc1 [Compound 1, N-(3-((2S,5S)-6-Amino-5-fluoro-5-(fluoromethyl)-2-methyl-2,3,4,5-tetrahydropyridin-2-yl)-4-fluorophenyl)-5-methoxypicolinamide] | 22 nM | 106% | 0.89
COc1cnc(C(=O)Nc2ccc(F)c([C@]3(CF)CC[C@@](F)(CF)C(N)=N3)c2)cn1 [Compound 23, N-[3-[(2S,5S)-6-amino-5-fluoro-2,5-bis(fluoromethyl)-2,3,4,5-tetrahydropyridin-2-yl]-4-fluoro-phenyl]-5-methoxy-pyrazine-2-carboxamide] | 17 nM | – | 1.06
Cc1nc(C(=O)Nc2ccc(F)c([C@]3(C)CC[C@@](F)(CF)C(N)=N3)c2)co1 [Compound 6] | 46 nM | 106% | 7
COc1cnc(C(=O)Nc2ccc(F)c([C@]3(CF)CC[C@](F)(CF)C(N)=N3)c2)cn1 [Compound 26, N-[3-[(2S,5R)-6-amino-5-fluoro-2,5-bis(fluoromethyl)-2,3,4,5-tetrahydropyridin-2-yl]-4-fluoro-phenyl]-5-methoxy-pyrazine-2-carboxamide] | 160 nM | – | 0.92
COc1ccc(C(=O)Nc2ccc(F)c([C@]3(C)CC[C@](F)(CF)C(N)=N3)c2)nc1 [Compound 14, N-(3-((2S,5R)-6-Amino-5-fluoro-5-(fluoromethyl)-2-methyl-2,3,4,5-tetrahydropyridin-2-yl)-4-fluorophenyl)-5-methoxypicolinamide] | 130 nM | 103% | 1.06
[2H]C([2H])([2H])Oc1ccc(C(=O)Nc2ccc(F)c([C@]3(C)CC[C@@](F)(CF)C(N)=N3)c2)nc1 [Compound 2, N-(3-((2S,5S)-6-Amino-5-fluoro-5-(fluoromethyl)-2-methyl-2,3,4,5-tetrahydropyridin-2-yl)-4-fluorophenyl)-5-(methoxy-d3)picolinamide] | 20 nM | 104% | 2.32
C[C@@]1(c2cc(NC(=O)c3ccc(Cl)cc3)ccc2F)CC[C@@](F)(CF)C(N)=N1 [Compound 12, N-(3-((2S,5S)-6-Amino-5-fluoro-5-(fluoromethyl)-2-methyl-2,3,4,5-tetrahydropyridin-2-yl)-4-fluorophenyl)-4-chlorobenzamide] | 140 nM | 103% | –
C[C@@]1(c2cc(NC(=O)c3coc(C(F)F)n3)ccc2F)CC[C@@](F)(CF)C(N)=N1 [Compound 9] | 26 nM | 103% | 8.61
